Key:
[1] = tested on: hTERT expression (hTERT promoter); test: HepG2-phTERT-SEAP reporter assay (SEAP activity as measure of hTERT expression); type: cell-based, human; settings: for increase in hTERT expression: 16 hours; for average increase in hTERT expression: 20 μg/ml, 16 hours incubation, HepG2-hTERT reporter cell line, n=5 (FIG. 1)
Protocol: NPL which consists of a total of 480 different pure natural product compounds.
(§1) “SEAP” stands for secreted alkaline phosphatase enzyme. SEAP was used as a reporter system to monitor the transcriptional activity of hTERT. Here, about 10,000 cells per well were grown in 96-well plates and incubated at 37° C. for 22 hours. Varying types and amounts of natural compounds were added and cells were incubated for another 16 hours. Culture media were collected and heated at 65° C. for 10 mins to inactivate heat labile phosphatases. An equal amount of SEAP buffer (2M diethanolamine, 1 mM MgCl2, and 20 mM L-homoarginine), was added to the media and p-nitrophenyl phosphate was added to a final concentration of 12 mM. Absorbance at 405 nm was taken, and the percentage change in absorbance was calculated.
An increase in SEAP activity detected via the utilization of a substrate, translates to an increase in hTERT expression.
Cell lines suitable for use in the assay were prepared from ATTC No. HB-8065 Hep G2 (Hepatocellular carcinoma, human). The Hep G2 cell line was isolated from a liver biopsy of a person with a well differentiated hepatocellular carcinoma. These cells are epithelial in morphology. These cells secrete a variety of major plasma proteins e.g., alpha-fetoprotein (alpha fetoprotein); albumin; alpha2 macroglobulin (alpha-2-macroglobulin); alpha1 antitrypsin (alpha-1-antitrypsin); transferrin; alpha1 antichymotrypsin; (alpha-1-antichymotrypsin); haptoglobin; ceruloplasmin; plasminogen; complement (C4); C3 activator; fibrinogen; alpha1 acid glycoprotein (alpha-1 acid glycoprotein); alpha2 HS glycoprotein (alpha-2-HS-glycoprotein); beta lipoprotein (beta-lipoprotein); retinol binding protein (retinol-binding protein). The cells are also responsive to stimulation with human growth hormone. HepG2 cells and its derivatives are commonly used as a model system for studies of liver metabolism and toxicity of xenobiotics, the detection of cytoprotective, anti (environmental and dietary) genotoxic and cogenotoxic agents, understanding hepatocarcinogenesis, and for drug targeting studies. HepG2 cells are also employed in trials with bio-artificial liver devices.
(§2) One of the plasmids contains the 5′ upstream hTERT promoter region followed by the reporter gene, the SEAP gene, while the other plasmid contains the CMV promoter region controlling the expression of the SEAP gene.
(§3) Each plasmid was then individually transfected into HepG2 cells and stable cells lines were established by selection on G418 (1 mg/ml). Stable clones of from each plasmid transfected cell line was established and each clone was propagated and preserved under liquid nitrogen for long term storage prior to use
(§4) The newly established HepG2-pTERT-SEAP and HepG2-pCMV-SEAP stable cell lines were then used for screening for inhibitors or activators of human telomerase expression.
An increase in SEAP activity indicates an increase in hTERT expression and a decrease in SEAP activity indicates a decrease in hTERT expression.
HepG2-phTERT-SEAP cells were grown for 22 hours in M199 medium supplemented with 10% FBS. The three compounds, 7E (P1), 8H(P1) and 11E(P2) (20 μg/ml) specified above were added and incubated for another 16 hours. After 16 hours, SEAP assay was conducted in accordance to the protocol described by Huang et al. (2003).

[2] = tested on: hTERT promoter relative to CMV promoter; test: Specificity check: hTERT promoter relative to CMV promoter driven SEAP in HepG2 cells; type: cell-based, human; settings: for Average phTERT/pCMV ratio: 20 μg/ml, 16 hours, ± SE, n = 3; for specificity in activating hTERT expression: judged from average phTERT/pCMV ratio
Protocol: as §1, §2, §3, §4
HepG2-pCMV-SEAP serves as a positive control to ensure that SEAP is always secreted by cells harbouring this plasmid. It also serves as a specificity control as any small molecules that stimulate or inhibit only telomerase expression identified using the HepG2-pTERT-SEAP cells screening should show little to no increase in SEAP activity.
HepG2-phTERT-SEAP cells were grown for 22 hours in M199 medium supplemented with 10% FBS. The three compounds (20 μg/ml) specified above were then added and incubated for another 16 hours. After 16 hours, SEAP assay was conducted in accordance to the protocol described by Huang et al. (2003). Concurrently, HepG2-pCMV-SEAP cells were also subjected to the compounds and results were also collected. The results obtained were as shown in Table 1 below which indicate the change in hTERT expression from n=3 independent experiments.

[3] = 1.25ug/ml, above untreated cells
[4] = 20 ug/ml, vs 1% DMSO control wells
[5] = 100 ug/ml, vs 1% DMSO control wells

| Compound | increase in hTERT expression [1, 3] | average increase in hTERT expression [1] | increase in hTERT expression [1, 4] | increase in hTERT expression [1, 5] | Average phTERT/pCMV ratio [2] | specificity in activating hTERT expression [2] |
| --- | --- | --- | --- | --- | --- | --- |
| COc1cc2ccc(=O)oc2c(O)c1OCC=C(C)C [8H, Plate 1, 8-hydroxy-6-methoxy-7-(3-methylbut-2-enyloxy) chromen-2-one] | 8.1% | 49.76% | 39.5% | 139.5% | 2.16 ± 0.14 | highly specific |
| Cc1ccc(C(=O)Nc2ccc(S(=O)(=O)O)c3cc(S(=O)(=O)O)cc(S(=O)(=O)O)c23)cc1NC(=O)c1cccc(NC(=O)Nc2cccc(C(=O)Nc3cc(C(=O)Nc4ccc(S(=O)(=O)O)c5cc(S(=O)(=O)O)cc(S(=O)(=O)O)c45)ccc3C)c2)c1 [Suramin, reference compound] |  |  |  |  | 1.16 ± 0.11 |  |
| COc1cc2ccc(=O)oc2cc1O [11E, Plate 2, 7-hydroxy-6-methoxychromen-2-one] | 4.3% | 57.99% | 54.2% | 225.8% | 2.01 ± 0.01 | highly specific |
| O=c1cc(-c2ccc(O)c(O)c2)oc2cc(O[C@@H]3O[C@H](CO)[C@@H](O)[C@H](O)[C@H]3O)cc(O)c12 [7E, Plate 1, 2-(3,4-dihydroxyphenyl)-5-hydroxy-7-[3,4,5-trihydroxy-6-(hydroxymethyl)(2H-3,4,5,6-tetrahydropyran-2-yloxy)]chromen-4-one] | 12.3% | 29.42% | 34.7% | 167.0% | 1.08 ± 0.04 | only mildly specific |
